Measurements reported in ChEMBL document CHEMBL5214922, “Melphalan: Recent insights on synthetic, analytical and medicinal aspects” (Eur J Med Chem, 2022).
In brackets after ≈: the same amount, converted by molar mass. Non-standard residues stand in square brackets, D forms with d. Residues, ends and D or L forms follow the SMILES beside them. ξ: configuration not given here. *: point of attachment. ξPhe(4-N(CH2CH2Cl)2) = NC(Cc1ccc(N(CCCl)CCCl)cc1)C(=O)O; X1 = O=P(O)(O)C(CN*)P(=O)(O)O

Tests used:
SK-OV-3 = assay: Cytotoxicity against human SK-OV-3 cells assessed as inhibition of cell proliferation incubated for 24 hrs by MTT assay; type: functional, cell-based; conditions: SK-OV-3, 24 h
Lymphoma cell line [1] = assay: Cytotoxicity against patient-derived human lymphoma cells assessed as cell growth inhibition incubated for 72 hrs by FMCA assay; type: functional, cell-based
Lymphoma cell line [2] = assay: Potency index, ratio of Melphalan IC50 to test compound IC50 for cytotoxicity against patient-derived human lymphoma cells assessed as cell growth inhibition incubated for 72 hrs by FMCA assay; type: functional
SAOS-2 [3] = assay: Cytotoxicity against human SAOS-2 cells assessed as cell growth inhibition; type: functional, cell-based
U2OS = assay: Cytotoxicity against human U2OS cells assessed as cell growth inhibition; type: functional, cell-based
[4] = Prodrug conversion assessed as drug excretion measured after 6 days by HPLC analysis; type: ADME; conditions: 144 h; time 6 day
MC3T3-E1 = assay: Cytotoxicity against mouse MC3T3-E1 cells assessed as cell growth inhibition; type: functional, cell-based
[5] = target: 72 kDa type IV collagenase (Homo sapiens, UniProt P08253); assay: Prodrug conversion assessed as MMP-2 (unknown origin)-mediated drug release by measuring half life by HPLC analysis; type: ADME
[6] = Biodistribution in mouse CCRF S-180 tumor cells xenografted in ICR mouse measured after 240 mins; type: ADME, organism-based; conditions: read-out: Drug uptake
MDA-MB-231 [7] = assay: Cytotoxicity against human MDA-MB-231 cells assessed as reduction in cell viability at 15 uM incubated for 24 hrs by MTT assay relative to control; type: functional
MDA-MB-231 [8] = assay: Inhibition of DNA synthesis in human MDA-MB-231 cells at 15 uM incubated upto 72 hrs by [3H]thymidine incorporation assay relative to control; type: functional
[9] = Biodistribution in mouse CCRF S-180 tumor cells xenografted in ICR mouse measured after 120 mins; type: ADME, organism-based; conditions: read-out: Drug uptake
[10] = Retention time of the compound by HPLC analysis; type: physicochemical
MCF7 [11] = assay: Cytotoxicity against human MCF7 cells assessed as cell growth inhibition incubated for 48 hrs by AlamarBlue assay; type: functional, cell-based; conditions: MCF7, 48 h
H-EMC-SS = assay: Cytotoxicity against human H-EMC-SS cells assessed as cell growth inhibition incubated for 72 hrs by resazurin reduction method; type: functional, cell-based
SAOS-2 [12] = assay: Cytotoxicity against human SAOS-2 cells assessed as cell growth inhibition incubated for 72 hrs by resazurin reduction method; type: functional, cell-based; conditions: SAOS-2, 72 h
[13] = Cytotoxicity against CHO cells assessed as cell growth inhibition incubated for 48 hrs by AlamarBlue assay; type: toxicity, cell-based, Cricetulus griseus; conditions: Chinese hamster
HT-29 = assay: Cytotoxicity against human HT-29 cells assessed as cell growth inhibition measured after 24 hrs by MTT assay; type: functional, cell-based; conditions: HT-29, 24 h
MCF7 [14] = assay: Cytotoxicity against human MCF7 cells assessed as cell growth inhibition incubated for 24 hrs by MTT assay; type: functional, cell-based; conditions: MCF7, 24 h
[15] = Plasma protein binding in human assessed as unbound fraction; type: ADME
K562 = assay: Cytotoxicity against human K562 cells assessed as cell growth inhibition incubated for 24 hrs by MTT assay; type: functional, cell-based; conditions: K562, 24 h
[16] = Plasma protein binding in human; type: ADME
[17] = Plasma protein binding in human by ultrafiltration method; type: ADME; conditions: read-out: PPB (converted)

72 kDa type IV collagenase, sequence (P08253 whole entry): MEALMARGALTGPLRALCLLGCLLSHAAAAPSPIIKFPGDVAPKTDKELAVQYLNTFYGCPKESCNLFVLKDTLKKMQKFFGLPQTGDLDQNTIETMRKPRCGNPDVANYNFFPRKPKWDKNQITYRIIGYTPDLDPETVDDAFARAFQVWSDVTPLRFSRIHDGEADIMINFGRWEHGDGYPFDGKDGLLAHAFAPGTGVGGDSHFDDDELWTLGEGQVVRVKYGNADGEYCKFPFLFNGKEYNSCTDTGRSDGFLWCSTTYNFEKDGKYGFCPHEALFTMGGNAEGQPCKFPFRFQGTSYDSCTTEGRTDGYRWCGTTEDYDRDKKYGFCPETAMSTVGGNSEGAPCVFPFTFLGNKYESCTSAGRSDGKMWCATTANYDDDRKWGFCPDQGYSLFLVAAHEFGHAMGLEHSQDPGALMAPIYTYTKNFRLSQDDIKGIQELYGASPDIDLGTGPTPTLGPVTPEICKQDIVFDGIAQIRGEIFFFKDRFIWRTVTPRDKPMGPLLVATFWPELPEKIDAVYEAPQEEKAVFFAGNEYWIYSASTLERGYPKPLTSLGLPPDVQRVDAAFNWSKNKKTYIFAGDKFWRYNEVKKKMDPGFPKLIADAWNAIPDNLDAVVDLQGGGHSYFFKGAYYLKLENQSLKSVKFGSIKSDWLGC

NC1=NC2N=CC(CNc3ccc(C(=O)NCC(CCC(=O)NCC(=O)NCC(=O)NC(Cc4ccc(N(CCCl)CCCl)cc4)C(=O)O)C(=O)NCC(=O)NCC(=O)NC(Cc4ccccc4)C(=O)O)cc3)N=C2C(=O)N1 (stereo not drawn)
IC50 (SK-OV-3): 4.1 µg/mL (≈ 3.66 µM)

CCOC(=O)[C@H](Cc1ccc(F)cc1)NC(=O)[C@@H](N)Cc1ccc(N(CCCl)CCCl)cc1 [MELPHALAN FLUFENAMIDE]
IC50 (Lymphoma cell line [1]): 0.011 µM | Ratio IC50 (Lymphoma cell line [2]): 49

CC(C)C[C@H](NC(=O)CNC(=O)[C@H](CC(C)C)NC(=O)[C@@H]1CCCN1C(=O)C(N)Cc1ccc(N(CCCl)CCCl)cc1)C(=O)N[C@@H](C)C(=O)NCC(=O)NCC(P(=O)(O)O)P(=O)(O)O (stereo partly drawn) (H-[ξPhe(4-N(CH2CH2Cl)2)]PLGLAG-X1)
IC50 (SAOS-2 [3]): 0.79 µM | IC50 (U2OS): 0.79 µM | Drug excretion [4]: 75% | IC50 (MC3T3-E1): 0.79 µM | t1/2 [5]: 1.25 h

CN(C)c1ccc(/C=N\Nc2ccc(CN[C@@H](Cc3ccc(N(CCCl)CCCl)cc3)C(=O)O)cc2)cc1
tissue uptake at 4 h [6]: 0.98 %ID/g

O=C(O)C(Cc1ccc(N(CCCl)CCCl)cc1)NCC(=O)N1CCCC1C(=O)O (stereo not drawn)
inhibition at 15 µM (MDA-MB-231 [7]): 55% | inhibition at 15 µM (MDA-MB-231 [8]): 30%

O=C(O)CN(CCN(CC(=O)O)CC(=O)O)CCN(CC(=O)O)CC(=O)N[C@@H](Cc1ccc(N(CCCl)CCCl)cc1)C(=O)O
tissue uptake at 2 h [9]: 1.03 %ID/g | Retention_time [10]: 10.72 min

C/C1=C\CC[C@@]2(C)O[C@H]2[C@H]2OC(=O)C(CNC(Cc3ccc(N(CCCl)CCCl)cc3)C(=O)O)[C@@H]2CC1 (stereo partly drawn)
tissue uptake at 2 h [9]: 1.63 %ID/g | Retention_time [10]: 14.5 min

Nc1ccn([C@@H]2O[C@H](CO)[C@@H](O)[C@@H]2O)c(=O)n1 [CYTARABINE]
IC50 (MCF7 [11]): > 20 µM

C[N+](C)(C)CCCNC(=O)[C@@H](N)Cc1ccc(N(CCCl)CCCl)cc1
IC50 (H-EMC-SS): 14 µM | IC50 (SAOS-2 [12]): 37.5 µM

C/C1=C\CC[C@@]2(C)O[C@H]2[C@H]2OC(=O)C(CNc3ccn(C4OC(CO)[C@H](O)[C@@H]4O)c(=O)n3)[C@@H]2CC1 (stereo partly drawn)
IC50 at 48 h [13]: 1.74 µM

CCOC(=O)CNC(=O)[C@H](Cc1ccc(N(CCCl)CCCl)cc1)NC(=O)[C@@H](N)[C@@H](C)CC
IC50 (HT-29): 40 µM

COC(=O)C(Cc1ccc(N(CCCl)CCCl)cc1)NC(=O)c1ccc(-c2ccc(C(=N)NC(C)C)cc2)o1 (stereo not drawn)
IC50 (MCF7 [14]): 23 µM

C=C1C(=O)O[C@@H]2C3O[C@]3(C)CC/C=C(\C)CC[C@@H]12 (stereo partly drawn)
IC50 (MCF7 [11]): > 20 µM

N[C@@H](Cc1ccc(N(CCCl)CCCl)cc1)C(=O)O [MELPHALAN]
IC50 (MCF7 [11]): > 20 µM | IC50 (SAOS-2 [3]): 0.68 µM | Cp(f) [15]: 2500 ng/mL | IC50 (K562): 65.7 µM | inhibition at 15 µM (MDA-MB-231 [7]): 40% | PPB [16]: 40 µg/mL | IC50 (MCF7 [14]): 77 µM | IC50 (U2OS): 0.68 µM | IC50 (MC3T3-E1): 0.68 µM | fraction unbound [17]: 0.31

CC1(C)CC(NC(=O)C(N)Cc2ccc(N(CCCl)CCCl)cc2)CC(C)(C)N1[O] (stereo not drawn)
IC50 (K562): 36.3 µM
